Experimental data from patent publication US8022235B2, “Compositions of phospholipid ether boronic acids and esters and methods for their synthesis and use” (Cellectar, Inc., priority 2007, dated 2011).

Assays:
[1] = system: Lung NCI H-69 (Oat Cell); assay: Imaging and tissue distribution, tumor model; type: in vivo, Nude Mouse; settings: Adenocarcinoma
[2] = system: Hepatocellular Carcinoma; assay: Imaging and tissue distribution, tumor model; type: in vivo, Spontaneous TGF-α mouse; settings: Adenocarcinoma
Text: (§2) Imaging and tissue distribution studies performed in mouse models aimed at determining the uptake characteristics in a wide variety of tumor models are summarized in Table 1, below.

[3] = system: Adenomatous Polyp; assay: Imaging and tissue distribution, tumor model; type: in vivo, Spontaneous Mouse; settings: Adenoma
[4] = system: Liver CT-26; assay: Imaging and tissue distribution, tumor model; type: in vivo, Mouse xenograft; settings: Colorectal adenocarcinoma
[5] = system: TRAMP prostate; assay: Imaging and tissue distribution, tumor model; type: in vivo, Spontaneous mouse; settings: Adenocarcinoma
[6] = system: human PC-3 prostate tumor xenografts; assay: Scintigraphy, microPET and tissue distribution in PC-3 tumor model; type: in vivo, SCID mice
Procedure: (§1) The avidity of PLE and APC analogs to localize in tumors was evaluated in several animal models. The PC-3 model represents a human tumor cell line that was used to determine the target (tumor) to non-target ratio of NM404 and NM412 in head to head comparison in order to select a candidate for an initial human pharmacokinetic trial in prostate cancer patients. The MatLyLu (Dunning R3327 rat) model, a rat prostate tumor line, was used specifically to screen 9 specific analogs prior to entering them into control for dosimetry and tumor-bearing animals for determining tumor/background ratios. Finally, the Walker-256 carcinosarcoma model was used for quantitative tissue distribution purposes.
Gamma camera scintigraphy images shown in FIG. 5 directly compare the tumor uptake and body clearance of second generation analog ^125I-NM404 (1) versus its shorter chain, first generation predecessor, ^125I-NM324 (12-(m-iodophenyl)dodecyl phosphocholine) at 1, 2, and 4 days post administration in immune-compromised SCID mice bearing human PC-3 prostate tumor xenografts.
Tumor uptake, however, continued to increase up until day 5 when it reached 18% injected dose per gram of tumor. […] Tumor to background tissue ratios exceeded 4, 6.8, 23, and 9 in blood, liver, muscle, and prostate, respectively, 3 days after injection and continued to improve at 5 and 8 days. Again, although thyroid levels ranged from 26 to 54% injected dose per gram of tissue, these levels are actually quite low and represent an extremely small percentage of the injected dose when the exceedingly small mass of the organ is considered and the data are presented on a percent administered dose per organ basis.

[7] = Human safety studies of unlabeled NM404; type: in vivo; settings: normal male humans, mass of 10 times the anticipated imaging dose
Procedure: Formal toxicology studies of NM404 in male rats and rabbits were performed at the Toxicology Research Center of the State University of New York at Buffalo under the direction of Dr. Paul Kostyniak. Drug vehicle and drug product were provided to Dr. Kostyniak by Dr. Raymond Counsell of the University of Michigan for testing as described in the appended synopses of Study 27 and Study 28. […] Human safety studies of unlabeled NM404 were initiated in normal male humans at a mass of 10 times the anticipated imaging dose and about 21 times the anticipated therapy dose. […] This toxicology study was performed under GLP conditions.

[8] = system: Mammary MCF-7; assay: Imaging and tissue distribution, tumor model; type: in vivo, Rat; settings: Adenocarcinoma
[9] = system: Colon LS-180; assay: Imaging and tissue distribution, tumor model; type: in vivo, Nude Mouse; settings: Adenocarcinoma
[10] = system: Lung A-549 (NSCLC); assay: Imaging and tissue distribution, tumor model; type: in vivo, SCID Mouse; settings: Adenocarcinoma
[11] = system: Melanoma; assay: Imaging and tissue distribution, tumor model; type: in vivo, Mouse xenograft; settings: Adenocarcinoma
Text: as §2

[12] = system: Mammary Hyperplasia; assay: Imaging and tissue distribution, tumor model; type: in vivo, Endogenous Mouse; settings: Alveolar Hyperplasia
[13] = system: non-small cell lung cancer (NSCLC); assay: Initial human pharmacokinetic evaluation, planar gamma-camera scintigraphy; type: in vivo; settings: relative to NM324
Text: FIG. 6A-C images of lung cancer patient, posterior whole body planar nuclear medicine image (A) 4 days after iv administration of ^131I-NM404 (0.8 mCi) to a patient with non small cell lung cancer (6 cm dia., arrow). Lung tumor is easily detected in corresponding axial (B) and coronal (C) computed tomography (CT) scans;
In preparation for human clinical trials, unlabeled NM404 was subjected to independent (University of Buffalo Toxicology Research Center) acute toxicity evaluation at 1200 times the anticipated imaging mass dose in rats and rabbits. […] Due to its selective tumor uptake and retention properties in a variety of rodent tumor models and subsequent excellent safety profile in rats and rabbits, NM404 was selected to undergo initial human pharmacokinetic evaluation in non-small cell lung cancer (NSCLC) patients. Patients underwent planar gamma-camera scintigraphy after receiving an injection of ^131I-NM404 (<1 mCi).

[14] = system: Prostate MatLyLu; assay: Gamma camera scintigraphy screen in Dunning R3327 (MAT LyLu) prostate cancer model; type: in vivo, Copenhagen rats
Procedure: as §1
In order to expedite the screening process and minimize the number of tumor bearing animals utilized in multiple time point tissue distribution studies, new radioiodinated homologs were imaged by gamma camera scintigraphy in the rat Dunning […] (MAT LyLu strain) prostate cancer model. Thus, male Copenhagen rats received a subcutaneous injection of MAT LyLu cells (1×10^6 cells) in the thigh 10-14 days prior to injection of the radioiodinated PLE analogs (30-40 μCi) in 2% Tween-20 solution. Gamma camera images were obtained at multiple time points including 24 and 48 hours post injection. […] Tissue distribution of radioactivity in rats bearing Walker-256 carcinosarcoma was assessed at various time intervals following intravenous administration of the radioiodinated chain length homologs. The first group of compounds that was tested included three alkylphosphocholines: a shorter chain analog with seven carbons NM396 and two analogs with a longer chain length, 13 (NM397, C15 alkyl chain length) and 1 (NM404, C18 alkyl chain length).
In order to decrease liver uptake and prolong the plasma phase, the inventors examined 9 structural analogs of NM324 to identify agents that would display improved tumor-to-background tissue ratios with decreased liver uptake. The new PLE analogs were synthesized and radiolabeled with ^125I for initial image analysis in Copenhagen rats bearing Dunning R3327 prostate tumors. […] NM404 was therefore selected to undergo further imaging and biodistribution analysis in a variety of animal-tumor models.

[15] = system: Cervical; assay: Imaging and tissue distribution, tumor model; type: in vivo, Spontaneous Mouse; settings: Adenocarcinoma

## C[N+](C)(C)CCOP(=O)([O-])OCCCCCCCCCCCCCCCCCCc1ccc(I)cc1 [NM404, 18-(p-iodophenyl)-octadecyl phosphocholine]
[1]
  Uptake: Yes
[2]
  Uptake: Yes
[3]
  Uptake: No
[4]
  Uptake: Yes
[5]
  Uptake: Yes
[6]; 3 days after injection
  tumor to background tissue ratio, blood: exceeded 4
  tumor to background tissue ratio, liver: > 6.8
  tumor to background tissue ratio, muscle: > 23
  tumor to background tissue ratio, prostate: > 9
[6]; 8 day evaluation period
  elimination of radioactivity from normal tissues: rapid elimination of radioactivity from all normal tissues
[6]; Prostate PC-3, Adenocarcinoma
  Uptake: Yes
[6]; SCID mouse prostate and A549 lung cancer tumor models
  tumor uptake: exceeding 25 % of the injected dose
[6]; radioiodinated NM404, day 5 (maximum)
  tumor uptake: 18 % injected dose per gram of tumor
[6]; scintigraphy at 1, 2 and 4 days, compared with NM324
  liver and background radioactivity: much improved
[7]
  toxicity: no toxicity attributable to the drug substance
[8]
  Uptake: Yes
[9]
  Uptake: Yes
[10]
  Uptake: Yes
[11]
  Uptake: Yes
[12]
  Uptake: No
[13]
  liver and abdominal radioactivity levels: much lower
[14]; 24 and 48 hours after injection
  tumor visualization by gamma camera scintigraphy: readily visualized
[14]; 125I-labeled, initial image screen, compared with NM324
  liver activity: much lower liver activity
[14]; Adenocarcinoma
  Uptake: Yes
[14]; initial screen, FIG. 7
  duration of tumor retention: over 20 days
[15]
  Uptake: Yes
